Results published in patent EP0139358B1, “N6-substituted diarylalkyl adenosines, processes for their production and pharmaceutical compositions comprising the same” (priority 1983, dated 1985).

System: conscious rat
Assay: Antihypertensive evaluation (AHP3): aortic blood pressure and heart rate
Assay type: in vivo
Details: for Mμ.c. ↓ / HR ↑: conscious rat; for Mμ.c. ↓: decrease in mean arterial blood pressure; for HR ↑: heart rate increase

## OC[C@H]1O[C@@H](n2cnc3c(NCC(c4ccccc4)c4ccccc4)ncnc32)[C@H](O)[C@@H]1O [Example 1, N^6-(2,2-Diphenylethyl)adenosine]
1 mg/kg
  Mμ.c. ↓: 16%
  HR ↑: <20%
3 mg/kg
  Mμ.c. ↓: 20%
  HR ↑: <20%
10 mg/kg
  Mμ.c. ↓: 20%
  HR ↑: <20%
30 mg/kg
  Mμ.c. ↓: 35%
  HR ↑: <20%
Rattus norvegicus, read-out: AHP3 BP LAD
  minimal effective dose: 1 mg/kg
